The record followed here is DBAASP.

What all share (experiment): ≥ marks a high value that may be exact or a test limit, other limits are often not marked, values filed in µg/mL are converted to µM
In assay [1] the test system is Bacillus subtilis KCTC 3068.
The subject of assay [2] is Escherichia coli KCTC 1682.
Assay [3] relates to Pseudomonas aeruginosa CCARM 2095.
The subject of assay [4] is Pseudomonas aeruginosa CCARM 2109.
Assay [5] deals with Pseudomonas aeruginosa KCTC 1637.
Assay [6] concerns Salmonella typhimurium KCTC 1926.
Assay [7] deals with Staphylococcus aureus CCARM 3001.
Assay [8] deals with Staphylococcus aureus CCARM 3543.
The subject of assay [9] is Staphylococcus aureus KCTC 1621.
For assay [10], the system named is Staphylococcus epidermidis KCTC 1917.
Assay [11] concerns Bacillus subtilis ATCC 6633.
Assay [12] has as its system Escherichia coli ATCC 25922.
Assay [13] deals with Klebsiella pneumoniae ATCC 10031.
The test system of assay [14] is Micrococcus luteus ATCC 10240.
Assay [15] concerns Pseudomonas aeruginosa ATCC 27853.
Assay [16] has as its system Salmonella enterica subsp. enterica serovar Typhimurium ATCC 14028.
Assay [17] relates to Shigella dysenteriae ATCC 9752.
Assay [18] deals with Staphylococcus aureus ATCC 6538P.
Assay [19] concerns Staphylococcus aureus TK784.
Assay [20] deals with Staphylococcus epidermidis ATCC 12228.
Assay [21] concerns Candida albicans ATCC 36232.
Assay [22] deals with Micrococcus luteus ATCC 9341.
The test system of assay [23] is Staphylococcus aureus ATCC 6538.
In the next assay the test system is Pseudomonas aeruginosa.
Assay [24] deals with Staphylococcus aureus KO-4.
In assay [25] the test system is Trichophyton mentagrophytes IFO 5466.
Assay [26] deals with Trypanosoma brucei brucei GUT Tat3.1.
The subject of assay [27] is Bacillus subtilis ATCC 62037.
Assay [28] concerns Candida albicans ATCC 10231.
Assay [29] concerns Cryptococcus neoformans ATCC 34881.
The test system of assay [30] is Escherichia coli ATCC 27325.
Assay [31] has as its system Pseudomonas putida ATCC 17426.
The subject of assay [32] is Saccharomyces cerevisiae ATCC 44774.
Assay [33] relates to Salmonella enterica subsp. enterica serovar Enteritidis ATCC 13076.
Assay [34] relates to Staphylococcus aureus ATCC 15752.
For assay [35], the system named is Streptococcus mutans ATCC 25175.
In assay [36] the test system is Acinetobacter baumannii ATCC 17978.
Assay [37] concerns Escherichia coli NCTC 12923.
Assay [38] concerns Klebsiella pneumoniae NCTC 13368.
Assay [39] deals with Pseudomonas aeruginosa NCTC 13437.
Assay [40] relates to Pseudomonas aeruginosa PAO1.
Assay [41] deals with Staphylococcus aureus ATCC 9144.
In assay [42] the test system is Staphylococcus aureus USA 300.

Structures are written as SMILES. Converted amounts (≈) assume the structure as drawn. “And” between values parts separate entries of the source, which are not always exact repeats. Identical values can stand only once.

Take `NC(=O)[C@H](CCCN=C(N)N)NC(=O)[C@H](CCCN=C(N)N)NC(=O)[C@H](Cc1c[nH]c2ccccc12)NC(=O)[C@H](CCCN=C(N)N)NC(=O)[C@H](CCCN=C(N)N)NC(=O)[C@H](Cc1c[nH]c2ccccc12)NC(=O)[C@H](CCCN=C(N)N)NC(=O)[C@H](CCCN=C(N)N)NC(=O)[C@H](Cc1c[nH]c2ccccc12)NC(=O)[C@H](CCCN=C(N)N)NC(=O)[C@@H](N)CCCN=C(N)N` [RRWRRWRRWRR]: the MIC in [1] is 4 µM (≈ 7.3 µg/mL); in assay [2], 8 µM (≈ 14.6 µg/mL); in assay [3], 16 µM (≈ 29.2 µg/mL); in [4], 16 µM (≈ 29.2 µg/mL); in assay [5], 8 µM (≈ 14.6 µg/mL); in assay [6], 4 µM (≈ 7.3 µg/mL). The MIC was 8 µM (≈ 14.6 µg/mL) in [7], 4 µM (≈ 7.3 µg/mL) in assay [8], 8 µM (≈ 14.6 µg/mL) in assay [9] and 2 µM (≈ 3.65 µg/mL) in assay [10].

Consider `CC(C)C[C@H](NC(=O)[C@H](Cc1c[nH]c2ccccc12)NC(=O)[C@H](CCCCN)NC(=O)[C@H](CCCCN)NC(=O)[C@H](CC(C)C)NC(=O)[C@H](Cc1c[nH]c2ccccc12)NC(=O)[C@H](CCCCN)NC(=O)[C@H](CCCCN)NC(=O)[C@@H](N)CC(C)C)C(=O)N[C@@H](CCCCN)C(=O)N[C@@H](CCCCN)C(N)=O` [LKKWLKKWLKK], for which the MIC in assay [11] is 13.3 µM (≈ 20 µg/mL); in assay [12], 13.3 µM (≈ 20 µg/mL); in assay [13], no less than 53.4 µM; in assay [14], 26.7 µM (≈ 40 µg/mL); in assay [15], 26.7 µM (≈ 40 µg/mL); in [16], greater than 53.4 µM. Moreover, the MIC in assay [17] is no less than 53.4 µM; in [18] it was 6.67 µM (≈ 9.99 µg/mL); in assay [19] it was no less than 53.4 µM; in [20], 26.7 µM (≈ 40 µg/mL).

On to `CC(C)[C@H](NC(=O)[C@H](CCCCN)NC(=O)[C@H](Cc1ccccc1)NC(=O)[C@@H](NC(=O)[C@@H](NC(=O)[C@H](CCCCN)NC(=O)[C@H](CCCCN)NC(=O)[C@@H](N)CCCCN)C(C)C)C(C)C)C(=O)N[C@@H](CCCCN)C(=O)N[C@@H](Cc1ccccc1)C(=O)N[C@@H](CCCCN)C(=O)N[C@@H](CCCCN)C(N)=O` [KKKVVFKVKFKK], for which the MIC was 4.15 µM and 2.08 µM in assay [21]; 2.08 µM (≈ 3.13 µg/mL) in [22]; 2.08 µM (≈ 3.13 µg/mL) in [23].

Consider `CC[C@H](C)[C@H](NC(=O)[C@H](CCCN=C(N)N)NC(=O)[C@H](CC(C)C)NC(=O)[C@H](Cc1ccc(O)cc1)NC(=O)[C@H](CC(C)C)NC(=O)[C@@H](N)CCCN=C(N)N)C(=O)NCC(=O)N[C@@H](CCCN=C(N)N)C(=O)N[C@@H](CCCN=C(N)N)C(N)=O` [RLYLRIGRR], for which the MIC is 333 µM (≈ 400 µg/mL) in the assay with Pseudomonas aeruginosa, no less than 499 µM in assay [24], 20.8 µM (≈ 25 µg/mL) in [25] and no less than 205 µM in assay [26].

As to `CC(C)[C@H](NC(=O)[C@H](CCCCN)NC(=O)CNC(=O)CNC(=O)[C@H](CCC(N)=O)NC(=O)[C@H](CCCCN)NC(=O)CNC(=O)[C@H](CCCN=C(N)N)NC(=O)CNC(=O)[C@H](C)N)C(=O)N[C@@H](CCCN=C(N)N)C(=O)N[C@@H](C)C(=O)N[C@@H](CCCCN)C(=O)N[C@@H](C)C(=O)N[C@@H](CCCCN)C(=O)N[C@H](C(=O)N[C@@H](CCCN=C(N)N)C(=O)N[C@@H](CO)C(=O)N[C@@H](CO)C(=O)O)[C@@H](C)O` [AGRGKQGGKVRAKAKTRSS], the MIC in [27] was 4.12 µM (≈ 8 µg/mL); in assay [28], 8.23 µM (≈ 16 µg/mL); in [29] it was 4.12 µM (≈ 8 µg/mL); in assay [30], 2.06 µM (≈ 4 µg/mL); in assay [31], 2.06 µM (≈ 4 µg/mL); in assay [32], 4.12 µM (≈ 8 µg/mL). In addition, the MIC in assay [33], in assay [34] and in assay [35] was 8.23 µM (≈ 16 µg/mL) each time.

Regarding `CC[C@H](C)[C@H](N)C(=O)N[C@@H](CC(C)C)C(=O)NCC(=O)N[C@@H](CCCCN)C(=O)N[C@H](C(=O)N[C@@H](Cc1c[nH]c2ccccc12)C(=O)N[C@@H](CCCCN)C(=O)N1CCC[C@H]1C(=O)N[C@H](C(=O)N[C@@H](CCCCN)C(=O)N[C@@H](CCCCN)C(=O)N[C@@H](CC(C)C)C(=O)N[C@@H](Cc1ccccc1)C(N)=O)[C@@H](C)CC)[C@@H](C)CC` [ILGKIWKPIKKLF], the MIC is 5.05 µM (≈ 8 µg/mL) in [36]; 2 µM (≈ 3.17 µg/mL) in assay [2]; 10.1 µM (≈ 16 µg/mL) in assay [37]; no less than 40.4 µM in [38]; 1 µM (≈ 1.58 µg/mL) in [3]; 2 µM (≈ 3.17 µg/mL) in assay [5]. The MIC was no less than 40.4 µM in [39]; greater than 80.8 µM in assay [40]; 1 µM (≈ 1.58 µg/mL) in assay [6]; 5.05 µM (≈ 8 µg/mL) in [41]; 1 µM (≈ 1.58 µg/mL) in assay [7]; 0.5 µM (≈ 0.792 µg/mL) in assay [8]. Also, the values for the MIC in [9], in assay [42] and in assay [10] were 2 µM (≈ 3.17 µg/mL), no less than 40.4 µM and 1 µM (≈ 1.58 µg/mL), respectively.

As usually defined, the MIC is the lowest concentration that inhibits growth of the organism.
